Measured values: the supplement of paper PMC10307832

Columns and labels:
Assay in all cases: relative viability (nuclei count vs DMSO), 5 days (fraction); higher = more cells survive
Selisistat + Crizotinib = compound: C1CC(C2=C(C1)C3=C(N2)C=CC(=C3)Cl)C(=O)N [Selisistat] + C[C@@H](Oc1cc(-c2cnn(C3CCNCC3)c2)cnc1N)c1c(Cl)ccc(F)c1Cl [Crizotinib] (partner 1 µM)
How it was run: (§1)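 The day after seeding in 1536-well plates, lung cancer cell lines were treated by pin tool with a single drug, or with a fixed anchor-drug dose together with five library-drug doses (not always all listed) in √10 steps. After 5 days, a combined fix-and-stain solution (final 0.05% Triton X-100, 1% formaldehyde, 1 ug/ml Hoechst) was added. Nuclei counted on 4× images gave relative viability as treated counts over vehicle counts, reported as the median of duplicate plates.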

Serdemetan + Bortezomib = compound: c1ccc2c(CCNc3ccc(Nc4ccncc4)cc3)c[nH]c2c1 [Serdemetan] + CC(C)C[C@H](NC(=O)[C@H](Cc1ccccc1)NC(=O)c1cnccn1)B(O)O [Bortezomib] (partner 0.002 µM)
How it was run: as §1

Selisistat + Palbociclib = compound: C1CC(C2=C(C1)C3=C(N2)C=CC(=C3)Cl)C(=O)N [Selisistat] + CC(=O)c1c(C)c2cnc(Nc3ccc(N4CCNCC4)cn3)nc2n(C2CCCC2)c1=O [Palbociclib] (partner 0.5 µM)
How it was run: as §1

Serdemetan + Vorinostat = compound: c1ccc2c(CCNc3ccc(Nc4ccncc4)cc3)c[nH]c2c1 [Serdemetan] + O=C(CCCCCCC(=O)Nc1ccccc1)NO [Vorinostat] (partner 1 µM)
How it was run: as §1

Cell Line	relative viability (Selisistat + Crizotinib; first compound 0.4 µM)	relative viability (Selisistat + Crizotinib; first compound 1.265 µM)	relative viability (Selisistat + Crizotinib; first compound 4 µM)	relative viability (Selisistat + Crizotinib; first compound 12.65 µM)	relative viability (Selisistat + Crizotinib; first compound 40 µM)	relative viability (Serdemetan + Bortezomib; first compound 0.04 µM)	relative viability (Serdemetan + Bortezomib; first compound 0.1265 µM)	relative viability (Serdemetan + Bortezomib; first compound 0.4 µM)	relative viability (Serdemetan + Bortezomib; first compound 1.265 µM)	relative viability (Serdemetan + Bortezomib; first compound 4 µM)	relative viability (Selisistat + Palbociclib; first compound 0.4 µM)	relative viability (Selisistat + Palbociclib; first compound 1.265 µM)	relative viability (Selisistat + Palbociclib; first compound 4 µM)	relative viability (Selisistat + Palbociclib; first compound 12.65 µM)	relative viability (Selisistat + Palbociclib; first compound 40 µM)	relative viability (Serdemetan + Vorinostat; first compound 0.04 µM)	relative viability (Serdemetan + Vorinostat; first compound 0.1265 µM)	relative viability (Serdemetan + Vorinostat; first compound 0.4 µM)	relative viability (Serdemetan + Vorinostat; first compound 1.265 µM)	relative viability (Serdemetan + Vorinostat; first compound 4 µM)
201T	1.04	1.03	0.986	1.02	1.01	1.08	1.14	1.1	1.05	1.06	0.369	0.338	0.32	0.333	0.365	0.974	0.996	0.883	0.879	0.715
A549	0.716	0.742	0.698	0.709	0.728	–	–	–	–	–	–	–	–	–	–	–	–	–	–	–
A-427	0.874	0.819	0.841	0.917	0.921	0.954	1.03	0.959	0.662	0.598	0.57	0.485	–	0.57	0.554	0.854	0.849	0.867	0.779	0.709
ABC-1	1.01	1.19	1.1	0.933	0.881	0.294	0.328	0.317	0.307	0.278	0.713	0.695	–	0.563	0.735	0.985	0.949	0.989	0.832	0.787
BEN	0.843	0.76	0.748	0.72	0.863	0.785	0.924	0.766	0.48	0.763	0.467	0.502	0.486	0.448	0.459	0.603	0.54	0.688	0.615	0.514
CAL-12T	0.668	0.518	0.795	0.626	0.422	–	1.11	–	0.931	1.04	0.534	0.41	0.122	0.448	0.409	0.857	0.82	0.748	0.922	0.627
COR-L23	0.621	0.664	0.635	0.537	0.581	0.918	0.863	0.996	0.669	0.978	0.372	0.296	0.332	0.305	0.296	0.441	0.434	0.392	0.412	0.362
COR-L 105	0.716	0.786	0.748	0.745	0.741	0.775	0.764	0.563	0.7	0.745	0.427	0.378	0.397	0.419	0.437	0.863	0.96	0.758	0.861	0.645
Calu-6	0.778	0.602	0.764	0.682	0.633	1.1	0.969	1.04	0.864	0.672	–	–	–	–	–	–	–	–	–	–
ChaGo-K-1	1.15	1.04	–	1.08	1.09	–	1.14	0.697	0.775	0.849	0.91	0.918	0.832	0.816	0.889	0.741	0.697	0.77	0.329	0.331
EBC-1	0.2	0.19	0.191	0.169	0.184	0.482	0.575	0.588	0.563	0.421	–	–	–	–	–	–	–	–	–	–
EKVX	0.964	0.925	1.01	0.896	0.983	1.09	1	0.857	0.911	1.25	0.364	0.351	0.329	0.376	0.353	0.798	0.719	–	0.462	0.546
EMC-BAC-2	0.78	0.74	0.742	0.582	0.755	1.07	1.06	1.04	0.907	0.939	0.523	0.525	0.586	0.282	0.319	0.463	0.471	0.495	0.379	0.399
EPLC-272H	0.941	0.865	–	0.915	0.992	0.967	0.931	0.899	0.723	0.634	0.343	0.323	–	0.334	0.368	0.396	0.654	0.532	0.304	0.218
H3255	0.899	0.769	0.926	0.899	0.734	0.827	0.68	0.886	0.746	0.7	0.348	0.295	0.33	0.303	0.32	0.701	0.797	–	0.487	0.73
HARA	0.95	1.01	1	1	0.981	1.09	1.1	1.15	–	1.08	0.295	0.242	0.241	0.275	0.251	0.527	0.565	0.492	0.483	0.274
HCC-15	0.913	0.866	–	0.782	0.813	1	1.01	1.01	0.954	0.855	0.755	0.854	0.586	0.748	0.885	0.848	0.83	0.704	0.681	0.456
HCC-44	0.804	0.788	0.957	0.871	0.801	0.854	0.849	0.827	0.621	0.85	1.05	0.975	1.07	0.994	1.06	1.05	1.12	1.05	1.05	0.825
HCC-78	0.341	0.304	0.3	0.307	0.345	0.471	0.524	0.476	0.52	0.372	0.488	0.461	0.435	0.476	0.473	0.464	0.432	0.483	0.388	0.339
HCC-366	0.58	0.681	0.4	0.521	0.562	1.08	1.04	1.03	0.0358	0.0541	0.414	0.447	0.37	0.355	0.377	0.351	0.166	0.191	0.047	0.0752
HCC-827	0.954	0.873	0.946	0.838	0.883	1.05	0.959	–	0.954	1.01	0.483	0.475	0.534	0.439	0.527	0.827	0.466	–	0.597	0.449

Cell Line	relative viability (Selisistat + Crizotinib; first compound 0.4 µM)	relative viability (Selisistat + Crizotinib; first compound 1.265 µM)	relative viability (Selisistat + Crizotinib; first compound 4 µM)	relative viability (Selisistat + Crizotinib; first compound 12.65 µM)	relative viability (Selisistat + Crizotinib; first compound 40 µM)	relative viability (Serdemetan + Bortezomib; first compound 0.04 µM)	relative viability (Serdemetan + Bortezomib; first compound 0.1265 µM)	relative viability (Serdemetan + Bortezomib; first compound 0.4 µM)	relative viability (Serdemetan + Bortezomib; first compound 1.265 µM)	relative viability (Serdemetan + Bortezomib; first compound 4 µM)	relative viability (Selisistat + Palbociclib; first compound 0.4 µM)	relative viability (Selisistat + Palbociclib; first compound 1.265 µM)	relative viability (Selisistat + Palbociclib; first compound 4 µM)	relative viability (Selisistat + Palbociclib; first compound 12.65 µM)	relative viability (Selisistat + Palbociclib; first compound 40 µM)	relative viability (Serdemetan + Vorinostat; first compound 0.04 µM)	relative viability (Serdemetan + Vorinostat; first compound 0.1265 µM)	relative viability (Serdemetan + Vorinostat; first compound 0.4 µM)	relative viability (Serdemetan + Vorinostat; first compound 1.265 µM)	relative viability (Serdemetan + Vorinostat; first compound 4 µM)
HOP-62	0.682	0.957	1.09	0.801	0.988	1.09	0.928	0.476	0.47	0.871	0.43	0.43	0.508	0.424	0.619	0.702	0.713	0.881	0.36	0.406
IA-LM	0.646	0.759	1.2	–	0.869	0.846	0.854	0.784	0.535	0.324	–	–	–	–	–	1.05	0.964	0.9	0.81	0.419
LC-2-ad	0.468	–	0.42	0.433	0.433	0.921	0.927	1.04	–	0.912	0.508	0.49	0.498	0.502	0.555	0.71	0.683	0.673	0.646	0.638
LCLC-97TM1	0.327	0.308	0.637	0.393	0.498	0.546	0.517	0.809	–	0.307	0.234	0.256	–	0.214	0.249	0.803	0.713	0.667	0.433	0.398
LCLC-103H	1.08	0.991	0.996	0.999	1.07	1.12	1.05	0.96	0.736	1.2	0.3	0.509	0.452	0.435	0.558	0.759	0.852	0.773	0.75	0.779
LK-2	0.234	0.255	0.245	0.231	0.24	–	–	–	–	–	0.797	0.686	0.766	0.694	0.566	0.394	0.371	0.372	0.221	0.461
NCI-H358	0.586	0.526	–	0.621	0.613	–	–	–	–	–	0.137	0.128	0.128	0.192	0.149	0.677	0.689	0.612	0.402	0.461
NCI-H522	–	–	–	–	–	–	–	–	–	–	1	0.969	0.714	0.921	1.02	0.982	0.955	0.923	0.831	0.799
NCI-H596	1.11	0.898	0.853	0.991	0.905	1.17	0.606	1.11	0.649	0.818	–	–	–	–	–	0.568	0.543	0.578	0.428	0.425
NCI-H1299	0.944	1	0.946	0.944	1	0.985	1.01	0.989	0.887	0.804	–	–	–	–	–	–	–	–	–	–
NCI-H1395	–	–	–	–	–	–	–	–	–	–	0.579	0.664	–	0.6	0.55	0.574	0.848	0.696	0.526	0.508
NCI-H1563	0.804	0.737	0.835	0.803	0.776	0.723	0.925	0.692	0.742	0.648	–	–	–	–	–	–	–	–	–	–
NCI-H1648	–	–	–	–	–	–	–	–	–	–	0.281	0.268	–	0.296	0.299	–	0.552	0.329	0.398	0.252
NCI-H1703	0.578	0.556	0.626	0.559	0.904	0.345	0.313	0.396	0.362	0.262	–	–	–	–	–	–	–	–	–	–
NCI-H1792	1.01	1.02	–	0.907	0.965	0.953	0.958	0.936	0.347	0.726	0.659	0.606	–	0.581	0.596	–	–	–	–	–
NCI-H1793	–	–	–	–	–	–	–	–	–	–	0.338	0.304	–	0.34	0.328	0.808	0.671	0.439	0.286	0.397
NCI-H1944	1.13	1.01	–	1.09	1.04	–	–	–	–	–	0.351	0.285	0.276	0.326	0.351	0.485	0.628	0.635	0.339	0.294
NCI-H2170	1.2	1.16	1.22	1.15	1.26	–	–	–	–	–	0.436	0.396	0.413	0.458	0.475	0.828	0.834	0.806	0.733	0.876
NCI-H2342	–	–	–	–	–	–	–	–	–	–	0.554	0.753	0.46	0.538	0.611	0.705	0.731	1.07	0.908	0.478
SK-MES-1	1.12	0.993	1.05	0.875	0.959	–	–	–	–	–	0.34	0.347	0.309	0.314	0.378	0.962	1.08	0.889	0.962	0.71
SW 900	–	–	–	–	–	–	–	–	–	–	0.549	0.517	0.502	0.553	0.511	0.485	0.569	0.53	0.393	0.455
